Data as given in patent publication US4221705A, “Novel peptide type antibiotic and the process for the production thereof” (priority 1977, dated 1980).

Experiment: Acute Toxic characters (Mouse LD50)
Format: in vivo
Conditions: HCl salt; for Mouse LD50: female; for LD50: mouse, in vivo, male
[1] = ip, Intraperitoneal Administration
[2] = sc, Subcutaneous Administration

SMILES	Mouse LD50 (Intraperitoneal Administration)	Mouse LD50 (Intravenous Administration) [mg/kg]	Mouse LD50 (Oral Administration)	Mouse LD50 (Subcutaneous Administration) [mg/kg]	LD50 [1] [mg/kg]	LD50 [2] [mg/kg]	LD50 (Intravenous Administration) [mg/kg]	LD50 (Oral Administration) [mg/kg]
C[C@@H](O)[C@H](NC(=O)[C@@H](CCCN)NC(=O)[C@H](CC(O)CNC(=N)N)NC(=O)[C@@H](N)CCCNC(=N)N)C(=O)N[C@H](CCCN)C(=O)N[C@@H](CC(O)CNC(=N)N)C(=O)N[C@H](Cc1ccc(O)cc1)C(=O)O (single isomer, unassigned) [L-ARG--L-(ARG(OH)--D-ORN--L-THR--D-ORN--L-ARG(OH)--D-TYR]	43.2 to 57.2 mg/kg	24.1 to 34.8	2400 to 3000 mg/kg	104 to 125	43.2 to 57.2	86.8 to 104	24.1 to 34.8	2400 to 3000
C[C@@H](O)[C@H](NC(=O)[C@@H](CCCN)NC(=O)[C@H](CC(O)CNC(=N)N)NC(=O)[C@@H](N)CCCNC(=N)N)C(=O)N[C@H](CCCN)C(=O)N[C@@H](CCCCN)C(=O)N[C@H](Cc1ccc(O)cc1)C(=O)O (single isomer, unassigned) [L-ARG--L-ARG(OH)--D-ORN--L-THR--D-ORN--L-Lys--D-TYR]	above 300 mg/kg	144 to 1728	above 6000 mg/kg	≥ 320	> 300	≥ 320	120 to 144	> 6000
